# Measurements as given in ChEMBL document CHEMBL5244243, “Novel strategies targeting bromodomain-containing protein 4 (BRD4) for cancer drug discovery” (Eur J Med Chem, 2020).
# What was measured:
# [1] = target: T1, Bromodomain-containing protein 4 (Homo sapiens, UniProt O60885); assay: Induction of BRD4 degradation in human MV4-11 cells at 100 nM measured after 18 hrs relative to control; format: cell-based
# [2] = target: T1, Bromodomain-containing protein 4; assay: Inhibition of BRD4 (unknown origin) BD1 domain
# Histone deacetylase = assay: Inhibition of HDAC (unknown origin); format: protein assay, Homo sapiens
# MV4-11 = assay: Antitumor activity against human MV4-11 cells xenografted in mouse assessed as TGI at 1 mg/kg, po measured after 7 days relative to control; format: functional; settings: MV4-11, 168 h, time 7 day, read-out: TGI
# [3] = target: T1, Bromodomain-containing protein 4; assay: Inhibition of BRD4 (unknown origin) BD1 domain incubated for 18 hrs
# [4] = target: T1, Bromodomain-containing protein 4; assay: Induction of BRD4 (unknown origin) degradation at 100 nM relative to control
# [5] = target: T1, Bromodomain-containing protein 4; assay: Inhibition of human full length BRD4
smiles,measurement,setting,value
Cc1sc2c(c1C)C(c1ccc(Cl)cc1)=N[C@@H](CC(=O)NCCCCNC(=O)COc1cccc3c1C(=O)N(C1CCC(=O)NC1=O)C3=O)c1nnc(C)n1-2 (some centres not stated),Activity,[1],87%
Cc1sc2c(c1C)C(c1ccc(Cl)cc1)=N[C@@H](CC(=O)Nc1ccc(C(=O)NO)cc1)c1nnc(C)n1-2,IC50,[2],11 nM
same,IC50,Histone deacetylase,21 nM
COc1nnc2ccc(N3CCC(c4ccc(OCCN5CCN(C)C(=O)[C@H]5C)cc4)CC3)nn12 [AZD-5153],inhibition in vivo at 1 mg/kg,MV4-11,72%
same,IC50,[3],1.6 nM
Cc1ncsc1-c1ccc(CNC(=O)[C@@H]2C[C@@H](O)CN2C(=O)C(NC(=O)COCCOCCOCCNC(=O)C[C@@H]2N=C(c3ccc(Cl)cc3)c3c(sc(C)c3C)-n3c(C)nnc32)C(C)(C)C)cc1 (some centres not stated),Activity,[4],90%
Cc1noc(C)c1-c1ccc2c(c1)c(Cc1ccc(F)cc1)cn2CCCCCCC(=O)NO,IC50,[5],5 nM
